Earlier results on one compound are cited in patent US8067405B2, “Superoxide dismutase mimics for the treatment of ocular disorders and diseases” (Novartis AG, priority 2002, dated 2011).

For this series, the system named is diabetogenic T-cell clone. As to conditions: in a cloned cell.

On to `CCN1C=CC=C/C1=C1/C2=NC(=C(c3cccc[n+]3CC)C3=NC(=C(c4cccc[n+]4CC)c4ccc([n-]4)C(c4cccc[n+]4CC)=C4C=CC1=N4)C=C3)C=C2.[Cl-].[Cl-].[Cl-].[Cl-].[Cl-].[Mn+3]` [AEOL10113], for which the onset of diabetes entry is “delay the onset of diabetes”.
